Data as given in US20040192869A1, “Polyvalent imprinted polymer and process of preparation thereof” (priority 2003, published 2004).

Molecular target: lysozyme (Gallus gallus, UniProt P00698)
Assay: Relative inhibition of lysozyme (I50), UV spectrophotometric method with Micrococcus lysodeikticus as substrate
Assay type: biochemical
Conditions: copolymers prepared in absence of lysozyme, and NAG
Experimental: This example describes estimation of inhibition concentration (I50) for lysozyme imprinted polyvalent copolymers and polyvalent copolymers prepared in the absence of lysozymne by UV spectrophotometric method. Micrococcus lysodeikticus is a substrate for the enzyme lysozyme. Relative binding of copolYmers was estimated by using a procedure reported by Neuberger and Wilson (1967). 1.5% w/v stock solutions of non imprinted copolymer was prepared in 0.0066 M phosphate buffer pH 6.2 containing 0.0154 M sodium chloride and 0.008 M sodium azide. One milliliter of stock solution containing different copolymer concentration was mixed with 1.6 ml of 78 μg/ml of Micrococcus lysodeikticus in a 3-ml capacity glass cuvette. The mixture was incubated for 5 minutes at 20° C. To this mixture 0.1 ml of lysozyme (27 μg/ml) was added and mixed thoroughly. The relative absorbance at 450 nm (Δ450) was recorded for 30 seconds. A blank reading without the copolymer was noted and the change in the absorbance per second was calculated. Then relative inhibition was calculated.

lysozyme, sequence (P00698 19-147): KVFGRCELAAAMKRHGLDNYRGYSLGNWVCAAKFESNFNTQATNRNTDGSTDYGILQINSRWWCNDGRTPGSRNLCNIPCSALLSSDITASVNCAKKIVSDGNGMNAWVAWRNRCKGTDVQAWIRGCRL

CC(=O)N[C@H]1C(O)O[C@H](CO)[C@@H](O)[C@@H]1O (stereo partly drawn) [NAG, N-Acetyl Glucosamine]
I max (concentration at maximum inhibition): 92000 nM | I max: 55.29 | IC50 (read-out: Relative Inhibition Iso (I50)): 74 µM
